Data as given in patent US10004701B2, “Methods and compositions for treating infection” (UNIVERSITY OF ROCHESTER, priority 2012, dated 2018).
Structures can show the parent of a compound that is named as a salt. Where two headings read alike, the source gives them in different places.

How the values were obtained:
Assay in all cases: AK assay 384-well format, Prestwick library screening
[1] = tested on: S. aureus strain USA300-0114; type: cell-based, Staphylococcus aureus; details: 50 μM final drug concentration; for fold induction at 50 µM: Staphylococcus aureus, USA300, 3 h
P. aeruginosa = type: cell-based, Pseudomonas aeruginosa; details: 50 μM final drug concentration; for fold induction at 50 µM: Pseudomonas aeruginosa, 3 h
E. faecium = type: cell-based, Enterococcus faecium; details: 50 μM final drug concentration; for fold induction at 50 µM: Enterococcus faecium, 3 h
E. coli = type: cell-based, Escherichia coli; details: 50 μM final drug concentration; for fold induction at 50 µM: Escherichia coli, 3 h
[2] = tested on: A. baumannii strain 98-37-09; type: cell-based, Acinetobacter baumannii; details: 50 μM final drug concentration; for fold induction at 50 µM: Acinetobacter baumannii, 983709, 3 h
K. pneumoniae = type: cell-based, Klebsiella pneumoniae; details: 50 μM final drug concentration; for fold induction at 50 µM: Klebsiella pneumoniae, 3 h
E. cloacae = type: cell-based, Enterobacter cloacae; details: 50 μM final drug concentration; for fold induction at 50 µM: Enterobacter cloacae, 3 h
[3] = planktonic S. aureus, positive cutoff 3-fold increase, read-out: AK-based Prestwick library screening result, S. aureus (fold increase in extracellular AK activity)
[4] = planktonic P. aeruginosa, positive cutoff 3-fold increase, read-out: AK-based Prestwick library screening result, P. aeruginosa (fold increase in extracellular AK activity)
[5] = planktonic E. faecium, positive cutoff 3-fold increase, read-out: AK-based Prestwick library screening result, E. faecium (fold increase in extracellular AK activity)
[6] = planktonic E. coli, positive cutoff 3-fold increase, read-out: AK-based Prestwick library screening result, E. coli (fold increase in extracellular AK activity)
[7] = planktonic A. baumannii, positive cutoff 3-fold increase, read-out: AK-based Prestwick library screening result, A. baumannii (fold increase in extracellular AK activity)
[8] = planktonic K. pneumoniae, positive cutoff 3-fold increase, read-out: AK-based Prestwick library screening result, K. pneumoniae (fold increase in extracellular AK activity)
[9] = planktonic E. cloacae, positive cutoff 3-fold increase, read-out: AK-based Prestwick library screening result, E. cloacae (fold increase in extracellular AK activity)
[10] = cutoff for positive-scoring molecules 3-fold increase, read-out: AK-based Prestwick Library Screening Results, S. aureus (fold increase in extracellular AK activity)
[11] = cutoff for positive-scoring molecules 3-fold increase, read-out: AK-based Prestwick Library Screening Results, P. aeruginosa (fold increase in extracellular AK activity)
[12] = cutoff for positive-scoring molecules 3-fold increase, read-out: AK-based Prestwick Library Screening Results, E. faecium (fold increase in extracellular AK activity)
[13] = cutoff for positive-scoring molecules 3-fold increase, read-out: AK-based Prestwick Library Screening Results, E. coli (fold increase in extracellular AK activity)
[14] = cutoff for positive-scoring molecules 3-fold increase, read-out: AK-based Prestwick Library Screening Results, A. baumannii (fold increase in extracellular AK activity)
[15] = cutoff for positive-scoring molecules 3-fold increase, read-out: AK-based Prestwick Library Screening Results, K. pneumoniae (fold increase in extracellular AK activity)
[16] = cutoff for positive-scoring molecules 3-fold increase, read-out: AK-based Prestwick Library Screening Results, E. cloacae (fold increase in extracellular AK activity)

CO[C@H]1/C=C/O[C@@]2(C)Oc3c(C)c(O)c4c(c3C2=O)C2=NC3(CCN(CC(C)C)CC3)NC2=C(NC(=O)/C(C)=C\C=C\[C@H](C)[C@H](O)[C@@H](C)[C@@H](O)[C@@H](C)[C@H](OC(C)=O)[C@@H]1C)C4=O [Rifabutin]
fold induction at 50 µM [1, 3]: 0.7 | fold induction at 50 µM (P. aeruginosa; [4]): 0.6 | fold induction at 50 µM (E. faecium; [5]): 1.2 | fold induction at 50 µM (E. coli; [6]): 1.3 | fold induction at 50 µM [2, 7]: 3.3 | fold induction at 50 µM (K. pneumoniae; [8]): 1.3 | fold induction at 50 µM (E. cloacae; [9]): 1.6

CO[C@H]1/C=C/O[C@@]2(C)Oc3c(C)c(O)c4c(O)c(c(/C=N/N5CCN(C)CC5)c(O)c4c3C2=O)NC(=O)/C(C)=C\C=C\[C@H](C)[C@H](O)[C@@H](C)[C@@H](O)[C@@H](C)[C@H](OC(C)=O)[C@@H]1C [Rifampicin]
fold induction at 50 µM ([1]; planktonic, cutoff for positive 3-fold increase, read-out: AK-based Prestwick Library Screening Results, S. aureus (fold increase in extracellular AK activity)): 0.8 | fold induction at 50 µM (P. aeruginosa; planktonic, cutoff for positive 3-fold increase, read-out: AK-based Prestwick Library Screening Results, P. aeruginosa (fold increase in extracellular AK activity)): 0.6 | fold induction at 50 µM (E. faecium; planktonic, cutoff for positive 3-fold increase, read-out: AK-based Prestwick Library Screening Results, E. faecium (fold increase in extracellular AK activity)): 0.8 | fold induction at 50 µM (E. coli; planktonic, cutoff for positive 3-fold increase, read-out: AK-based Prestwick Library Screening Results, E. coli (fold increase in extracellular AK activity)): 1.3 | fold induction at 50 µM ([2]; planktonic, cutoff for positive 3-fold increase, read-out: AK-based Prestwick Library Screening Results, A. baumannii (fold increase in extracellular AK activity)): 3 | fold induction at 50 µM (K. pneumoniae; planktonic, cutoff for positive 3-fold increase, read-out: AK-based Prestwick Library Screening Results, K. pneumoniae (fold increase in extracellular AK activity)): 0.7 | fold induction at 50 µM (E. cloacae; planktonic, cutoff for positive 3-fold increase, read-out: AK-based Prestwick Library Screening Results, E. cloacae (fold increase in extracellular AK activity)): 1.4

Nc1nc2ccc(OC(F)(F)F)cc2s1 [Riluzole hydrochloride]
fold induction at 50 µM ([1]; 384-well format, cutoff for positive-scoring molecules 3-fold increase, read-out: AK-based Prestwick Library Screening Results, S. aureus (increase in extracellular AK activity)): 0.2 | fold induction at 50 µM (P. aeruginosa; 384-well format, cutoff for positive-scoring molecules 3-fold increase, read-out: AK-based Prestwick Library Screening Results, P. aeruginosa (increase in extracellular AK activity)): 0.2 | fold induction at 50 µM (E. faecium; 384-well format, cutoff for positive-scoring molecules 3-fold increase, read-out: AK-based Prestwick Library Screening Results, E. faecium (increase in extracellular AK activity)): 0.3 | fold induction at 50 µM (E. coli; 384-well format, cutoff for positive-scoring molecules 3-fold increase, read-out: AK-based Prestwick Library Screening Results, E. coli (increase in extracellular AK activity)): 0.2 | fold induction at 50 µM ([2]; 384-well format, cutoff for positive-scoring molecules 3-fold increase, read-out: AK-based Prestwick Library Screening Results, A. baumannii (increase in extracellular AK activity)): 0.2 | fold induction at 50 µM (K. pneumoniae; 384-well format, cutoff for positive-scoring molecules 3-fold increase, read-out: AK-based Prestwick Library Screening Results, K. pneumoniae (increase in extracellular AK activity)): 0.2 | fold induction at 50 µM (E. cloacae; 384-well format, cutoff for positive-scoring molecules 3-fold increase, read-out: AK-based Prestwick Library Screening Results, E. cloacae (increase in extracellular AK activity)): 0.5

CCC(=O)[C@@]1(C)[C@H](C)C[C@H]2[C@@H]3CCC4=CC(=O)C=C[C@]4(C)[C@H]3[C@@H](O)C[C@@]21C [Rimexolone]
fold induction at 50 µM [1, 3]: 1.1 | fold induction at 50 µM (P. aeruginosa; [4]): 1 | fold induction at 50 µM (E. faecium; [5]): 0.9 | fold induction at 50 µM (E. coli; [6]): 0.9 | fold induction at 50 µM [2, 7]: 0.9 | fold induction at 50 µM (K. pneumoniae; [8]): 0.8 | fold induction at 50 µM (E. cloacae; [9]): 4.9

Cc1nc2n(c(=O)c1CCN1CCC(c3noc4cc(F)ccc34)CC1)CCCC2 [Risperidone]
fold induction at 50 µM ([1]; planktonic S. aureus, […], read-out: AK-based Prestwick library screening result, S. aureus (fold increase in extracellular AK activity)): 1.3 | fold induction at 50 µM (P. aeruginosa; planktonic P. aeruginosa, […], read-out: AK-based Prestwick library screening result, P. aeruginosa (fold increase in extracellular AK activity)): 1.1 | fold induction at 50 µM (E. faecium; planktonic E. faecium, […], read-out: AK-based Prestwick library screening result, E. faecium (fold increase in extracellular AK activity)): 1 | fold induction at 50 µM (E. coli; planktonic E. coli, […], read-out: AK-based Prestwick library screening result, E. coli (fold increase in extracellular AK activity)): 1.1 | fold induction at 50 µM ([2]; planktonic A. baumannii, […], read-out: AK-based Prestwick library screening result, A. baumannii (fold increase in extracellular AK activity)): 1.5 | fold induction at 50 µM (K. pneumoniae; planktonic K. pneumoniae, […], read-out: AK-based Prestwick library screening result, K. pneumoniae (fold increase in extracellular AK activity)): 1.1 | fold induction at 50 µM (E. cloacae; planktonic E. cloacae, […], read-out: AK-based Prestwick library screening result, E. cloacae (fold increase in extracellular AK activity)): 1.3

CC(NCCc1ccc(O)cc1)C(O)c1ccc(O)cc1 (stereo not shown) [Ritodrine hydrochloride]
fold induction at 50 µM ([1]; planktonic S. aureus, cutoff for positive-scoring molecules 3-fold increase, read-out: AK-based Prestwick Library Screening Results, S. aureus (increase in extracellular AK activity)): 0.5 | fold induction at 50 µM (P. aeruginosa; planktonic P. aeruginosa, cutoff for positive-scoring molecules 3-fold increase, read-out: AK-based Prestwick Library Screening Results, P. aeruginosa (increase in extracellular AK activity)): 0.9 | fold induction at 50 µM (E. faecium; planktonic E. faecium, cutoff for positive-scoring molecules 3-fold increase, read-out: AK-based Prestwick Library Screening Results, E. faecium (increase in extracellular AK activity)): 0.9 | fold induction at 50 µM (E. coli; planktonic E. coli, cutoff for positive-scoring molecules 3-fold increase, read-out: AK-based Prestwick Library Screening Results, E. coli (increase in extracellular AK activity)): 0.8 | fold induction at 50 µM ([2]; planktonic A. baumannii, cutoff for positive-scoring molecules 3-fold increase, read-out: AK-based Prestwick Library Screening Results, A. baumannii (increase in extracellular AK activity)): 0.8 | fold induction at 50 µM (K. pneumoniae; planktonic K. pneumoniae, cutoff for positive-scoring molecules 3-fold increase, read-out: AK-based Prestwick Library Screening Results, K. pneumoniae (increase in extracellular AK activity)): 0.7 | fold induction at 50 µM (E. cloacae; planktonic E. cloacae, cutoff for positive-scoring molecules 3-fold increase, read-out: AK-based Prestwick Library Screening Results, E. cloacae (increase in extracellular AK activity)): 0.9

COc1ccc(C2CNC(=O)C2)cc1OC1CCCC1 (stereo not shown) [Rolipram]
fold induction at 50 µM [1, 10]: 1.3 | fold induction at 50 µM (P. aeruginosa; [11]): 1.2 | fold induction at 50 µM (E. faecium; [12]): 1 | fold induction at 50 µM (E. coli; [13]): 1.1 | fold induction at 50 µM [2, 14]: 1.2 | fold induction at 50 µM (K. pneumoniae; [15]): 1 | fold induction at 50 µM (E. cloacae; [16]): 1.7

CN(C)[C@@H]1C(O)=C(C(=O)NCN2CCCC2)C(=O)[C@@]2(O)C(O)=C3C(=O)c4c(O)cccc4[C@@](C)(O)[C@H]3C[C@@H]12 [Rolitetracycline]
fold induction at 50 µM [1, 10]: 1.1 | fold induction at 50 µM (P. aeruginosa; [11]): 1.1 | fold induction at 50 µM (E. faecium; [12]): 1 | fold induction at 50 µM (E. coli; [13]): 1.1 | fold induction at 50 µM [2, 14]: 1.2 | fold induction at 50 µM (K. pneumoniae; [15]): 1 | fold induction at 50 µM (E. cloacae; [16]): 1.7

Cn1c([N+](=O)[O-])cnc1COC(N)=O [Ronidazole]
fold induction at 50 µM [1, 3]: 1.3 | fold induction at 50 µM (P. aeruginosa; [4]): 1 | fold induction at 50 µM (E. faecium; [5]): 1.1 | fold induction at 50 µM (E. coli; [6]): 1.1 | fold induction at 50 µM [2, 7]: 1.6 | fold induction at 50 µM (K. pneumoniae; [8]): 1.7 | fold induction at 50 µM (E. cloacae; [9]): 1.6

O=[N+]([O-])c1cc([As](=O)(O)O)ccc1O [Roxarsone]
AK-based Prestwick Library Screening Results, S. aureus (fold increase in extracellular AK activity) ([1]; […]): 0.6 | AK-based Prestwick Library Screening Results, P. aeruginosa (fold increase in extracellular AK activity) (P. aeruginosa; […]): 0.5 | AK-based Prestwick Library Screening Results, E. faecium (fold increase in extracellular AK activity) (E. faecium; […]): 0.8 | AK-based Prestwick Library Screening Results, E. coli (fold increase in extracellular AK activity) (E. coli; […]): 0.4 | AK-based Prestwick Library Screening Results, A. baumannii (fold increase in extracellular AK activity) ([2]; […]): 0.5 | AK-based Prestwick Library Screening Results, K. pneumoniae (fold increase in extracellular AK activity) (K. pneumoniae; […]): 0.4 | AK-based Prestwick Library Screening Results, E. cloacae (fold increase in extracellular AK activity) (E. cloacae; […]): 0.5
